# Assays:
# [1] = Particle size distribution of SHR0302 by laser diffraction (Malvern, Hydro MV); type: physicochemical; conditions: SHR0302 used in Example 1; wet dispersion in ethyl acetate; FIG. 1
# From the text: In the pharmaceutical compositions of the present invention, the active ingredient is present as small particles. Particle size of the drug can be assessed using laser diffraction methods. Laser diffraction is recognized by standards and guidance agencies including ISO and ASTM and is widely used to determine particle size distributions. In conducting the assessment, the sample is passed through a laser beam, which results in laser light scattered at a range of angles. Detectors placed at fixed angles measure the intensity of light scattered at that position. A mathematical model is then applied to generate a particle size distribution. The particle size values reported herein are determined by using a liquid or wet dispersion method.
# In particle size determinations, the median value is defined as the value where half of the population resides above this point, and half resides below this point. For particle size distributions the median is called the D50. The D50 is the size that splits the distribution with half above and half below this diameter. The distribution width may also be characterized by citing one, two or three values on the x-axis, typically some combination of the D10, D50, and D90. The D50, the median, has been defined above as the diameter where half of the population lies below this value. Similarly, 90 percent of the distribution lies below the D90, and 10 percent of the population lies below the D10.
# A pharmaceutical composition comprising 3% SHR0302 suspended in dimethicone was prepared. The primary particle size distribution of the SHR0302 is characterized by a D10 value of less than about 0.25 μm; a D50 value of less than about 0.7 μm; and a D90 value of less than about 5 μm. The pharmaceutical composition was a transparent solution due to the particles being too small to scatter visible light. A Malvern Metasizer Model 3000 using the Hydro MV dispersion unit was used to determine the particle size distribution profile of SHR0302. […]
# JAK1 = JAK1 (Homo sapiens, UniProt P23458); conditions: cited from earlier work
# JAK1, sequence (P23458 whole entry, species assumed): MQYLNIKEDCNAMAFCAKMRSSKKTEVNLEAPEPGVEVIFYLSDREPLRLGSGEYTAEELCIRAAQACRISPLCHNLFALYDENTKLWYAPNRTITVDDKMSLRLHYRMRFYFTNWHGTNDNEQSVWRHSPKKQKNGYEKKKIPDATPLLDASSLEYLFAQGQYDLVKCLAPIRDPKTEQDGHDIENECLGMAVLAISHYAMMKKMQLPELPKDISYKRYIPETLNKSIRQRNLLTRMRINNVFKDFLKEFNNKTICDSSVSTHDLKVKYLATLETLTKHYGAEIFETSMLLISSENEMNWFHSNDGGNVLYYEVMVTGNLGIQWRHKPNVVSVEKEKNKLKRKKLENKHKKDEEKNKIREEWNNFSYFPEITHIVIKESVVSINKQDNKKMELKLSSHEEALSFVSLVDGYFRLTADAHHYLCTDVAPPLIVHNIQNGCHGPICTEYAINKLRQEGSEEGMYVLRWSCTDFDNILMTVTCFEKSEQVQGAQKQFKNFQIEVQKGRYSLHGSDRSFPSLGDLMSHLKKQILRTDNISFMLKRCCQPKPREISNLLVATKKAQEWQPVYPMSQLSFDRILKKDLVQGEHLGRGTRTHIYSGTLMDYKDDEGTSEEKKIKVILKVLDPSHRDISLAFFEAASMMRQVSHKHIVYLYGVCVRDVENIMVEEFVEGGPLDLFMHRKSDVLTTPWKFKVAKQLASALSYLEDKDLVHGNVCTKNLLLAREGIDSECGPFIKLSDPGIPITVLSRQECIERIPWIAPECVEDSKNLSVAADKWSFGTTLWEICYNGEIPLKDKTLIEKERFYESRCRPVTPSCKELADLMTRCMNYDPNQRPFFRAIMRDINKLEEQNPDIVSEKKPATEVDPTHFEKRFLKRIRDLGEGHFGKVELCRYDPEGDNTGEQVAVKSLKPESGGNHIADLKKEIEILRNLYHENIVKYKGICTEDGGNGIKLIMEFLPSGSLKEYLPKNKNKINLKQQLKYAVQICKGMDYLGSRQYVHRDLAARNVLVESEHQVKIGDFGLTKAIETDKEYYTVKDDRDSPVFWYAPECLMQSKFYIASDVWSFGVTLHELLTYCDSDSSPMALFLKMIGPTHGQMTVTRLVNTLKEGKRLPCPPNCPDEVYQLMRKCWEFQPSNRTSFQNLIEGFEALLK
# women with acne = conditions: orally administered; cited from earlier work
Structure (SMILES),primary particle size distribution D10 value [1],primary particle size distribution D50 value [1],primary particle size distribution D90 value [1],selectivity for JAK1 over JAK2 (JAK1),efficacy in the treatment of women with acne (women with acne)
"COc1nsc(NC(=O)N2C[C@H]3C[C@H](N(C)c4ncnc5[nH]ccc45)C[C@H]3C2)n1 [SHR0302, (3aR,5S,6aS)—N-(3-methoxyl-1,2,4-thiadiazol-5-yl)-5-(methyl(7H-pyrrolo[2,3-d]pyrimidin-4-yl)amino)hexahydrocyclopenta[c]pyrrole-2(1H)-carboxamide]",less than 0.25 μm,less than 0.7 μm,less than 5 μm,high selectively for JAK1 over JAK2,–
"CC(=O)S[C@@H]1CC2=CC(=O)CC[C@]2(C)[C@H]2CC[C@@]3(C)[C@@H](CC[C@@]34CCC(=O)O4)[C@H]12 [spironolactone, 17-hydroxy-7α-mercapto-3-oxo-17α-pregn-4-ene-21-carboxylic acid γ-lactone acetate]",–,–,–,–,efficacious

# From patent US20220152033A1, “COMPOSITIONS AND METHODS FOR DEEP DERMAL DRUG DELIVERY” (ARCUTIS BIOTHERAPEUTICS, INC., priority 2020, published 2022)
